Test results from patent US9365562B2, “1,3 substituted azetidine PDE10 inhibitors” (Merck Sharp & Dohme Corp., priority 2011, dated 2016).

Biological target: human PDE10A2 (Homo sapiens (Human), UniProt Q9Y233)
Test: PDE10 fluorescence polarization (IMAP FP) inhibition assay
Format: biochemical
Conditions: apparent inhibition constant, FAM-labeled cAMP substrate 50 nM, room temperature
Outline: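 Cytoplasmic lysate of AD293 cells transiently expressing human PDE10A2, enzyme preincubated 60 min at room temperature with compounds (1% DMSO), then 50 nM FAM-cAMP added for 60 min. Buffer 10 mM Tris HCl pH 7.2, 10 mM MgCl2, 1 mM DTT; IMAP binding reagent stop, FP read after ≥1 h.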

Sequence of human PDE10A2 (Q9Y233 267-1055): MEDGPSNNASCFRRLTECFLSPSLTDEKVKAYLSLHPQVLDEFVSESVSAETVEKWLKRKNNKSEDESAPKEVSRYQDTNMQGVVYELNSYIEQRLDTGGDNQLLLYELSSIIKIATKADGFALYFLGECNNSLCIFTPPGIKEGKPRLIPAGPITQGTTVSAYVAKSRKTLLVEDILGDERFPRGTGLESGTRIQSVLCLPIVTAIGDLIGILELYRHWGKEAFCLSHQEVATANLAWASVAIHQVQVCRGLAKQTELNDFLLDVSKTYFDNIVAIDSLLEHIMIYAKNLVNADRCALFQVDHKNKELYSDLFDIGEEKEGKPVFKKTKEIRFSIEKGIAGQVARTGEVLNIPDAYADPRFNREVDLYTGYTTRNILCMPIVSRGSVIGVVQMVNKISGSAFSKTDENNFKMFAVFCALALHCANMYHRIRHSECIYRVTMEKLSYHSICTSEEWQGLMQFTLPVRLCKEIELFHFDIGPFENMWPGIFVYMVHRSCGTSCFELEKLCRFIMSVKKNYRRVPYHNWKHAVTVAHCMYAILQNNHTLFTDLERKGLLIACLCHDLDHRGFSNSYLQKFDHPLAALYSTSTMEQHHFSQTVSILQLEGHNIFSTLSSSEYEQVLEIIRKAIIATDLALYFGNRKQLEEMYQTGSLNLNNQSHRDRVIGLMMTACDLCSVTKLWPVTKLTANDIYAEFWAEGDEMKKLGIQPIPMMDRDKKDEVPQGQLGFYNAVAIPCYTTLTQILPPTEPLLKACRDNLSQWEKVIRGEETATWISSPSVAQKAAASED

Ki [nM] | Compound
13 | CCCn1c(C2CN(c3cc(-n4nc(C)nc4C)nc(C)n3)C2)nc2ccccc21 [Example 118, 2-(1-(6-(3,5-dimethyl-1H-1,2,4-triazol-1-yl)-2-methylpyrimidin-4-yl)azetidin-3-yl)-1-propyl-1H-benzo[d]imidazole]
0.38 | Cc1nc(C)n(-c2cc(N3CC(c4nc5ccccc5n4C)C3)nc(OC(C)C)n2)n1 [Example 70, 2-{1-[6-(3,5-dimethyl-1H-1,2,4-triazol-1-yl)-2-isopropoxypyimidin-4-yl]azetidin-3-yl}-1-methyl-1H-benzimidazole]
1.1 | Cc1nc(-c2ccc(Cl)cn2)cc(N2CC(c3nc4ccccc4n3C)C2)n1 [Example 99, 2-(1-(6-(5-chloropyridin-2-yl)-2-methylpyrimidin-4-yl)azetidin-3-yl)-1-methyl-1H-benzo[d]imidazole]
407 | Cc1ccc(C2CN(c3cc(-n4nc(C)nc4C)nc(C)n3)C2)nc1 [Example 126, 4-(3,5-Dimethyl-1H-1,2,4-triazol-1-yl)-2-methyl-6-[3-(5-methylpyridin-2-yl)azetidin-1-yl]pyrimidine]
0.26 | Cc1nc(C)n(-c2cc(N3CC(c4nc5ccccc5n4C)C3)nc(-n3ccnc3C)n2)n1 [Example 77, 2-(1-(6-(3,5-dimethyl-1H-1,2,4-triazol-1-yl)-2-(2-methyl-1H-imidazol-1-yl)pyrimidin-4-yl)azetidin-3-yl)-1-methyl-1H-benzo[d]imidazole]
15 | Cc1nc(-c2ccccc2F)cc(N2CC(c3nc4ccccc4n3C)C2)n1 [Example 90, 2-(1-(6-(2-fluorophenyl)-2-methylpyrimidin-4-yl)azetidin-3-yl)-1-methyl-1H-benzo[d]imidazole]
9.5 | Cc1nc(N2CC(c3nc4ccccc4n3CCCC#N)C2)cc(-n2nc(C)nc2C)n1 [Example 121, 4-(2-(1-(6-(3,5-dimethyl-1H-1,2,4-triazol-1-yl)-2-methylpyrimidin-4-yl)azetidin-3-yl)-1H-benzo[d]imidazol-1-yl)butanenitrile]
46 | Cc1nc(-c2ccncc2)cc(N2CC(c3nc4ccccc4n3C)C2)n1 [Example 86, 1-methyl-2-(1-(2-methyl-6-(pyridin-4-yl)pyrimidin-4-yl)azetidin-3-yl)-1H-benzo[d]imidazole]
1 | Cc1ccc(-c2cc(N3CC(c4nc5ccccc5n4C)C3)nc(C)n2)nc1 [Example 94, 1-methyl-2-(1-(2-methyl-6-(5-methylpyridin-2-yl)pyrimidin-4-yl)azetidin-3-yl)-1H-benzo[d]imidazole]
2.5 | COCc1nc(C)nn1-c1cc(N2CC(c3nc4ccccc4n3C)C2)nc(C2CC2)n1 [Example 65, 2-(1-(2-cyclopropyl-6-(5-(methoxymethyl)-3-methyl-1H-1,2,4-triazol-1-yl)pyrimidin-4-yl)azetidin-3-yl)-1-methyl-1H-benzo[d]imidazole]
0.54 | Cc1cnn(-c2cc(N3CC(c4nc5ccccc5n4C)C3)nc(C3CC3)n2)n1 [Example 33, 2-(1-(2-cyclopropyl-6-(4-methyl-2H-1,2,3-triazol-2-yl)pyrimidin-4-yl)azetidin-3-yl)-1-methyl-1H-benzo[d]imidazole]
10 | Cc1ccc(-c2nc(C)nn2-c2cc(N3CC(c4nc5ccccc5n4C)C3)nc(C)n2)cn1 [Example 55, 1-methyl-2-(1-(2-methyl-6-(3-methyl-5-(6-methylpyridin-3-yl)-1H-1,2,4-triazol-1-yl)pyrimidin-4-yl)azetidin-3-yl)-1H-benzo[d]imidazole]
1.1 | Cc1cn(-c2cc(N3CC(c4nc5ccccc5n4C)C3)nc(C3CC3)n2)nn1 [Example 32, 2-(1-(2-cyclopropyl-6-(4-methyl-1H-1,2,3-triazol-1-yl)pyrimidin-4-yl)azetidin-3-yl)-1-methyl-1H-benzo[d]imidazole]
16 | Cc1nc(N2CC(c3nc4ccccc4n3C)C2)cc(-n2nc(C)nc2-c2ccc(C#N)cc2)n1 [Example 54, 4-(3-methyl-1-(2-methyl-6-(3-(1-methyl-1H-benzo[d]imidazol-2-yl)azetidin-1-yl)pyrimidin-4-yl)-1H-1,2,4-triazol-5-yl)benzonitrile]
0.2 | CSc1nc(N2CC(c3nc4ccccc4n3C)C2)cc(-n2nc(C)nc2C)n1 [Example 23, 2-(1-(6-(3,5-dimethyl-1H-1,2,4-triazol-1-yl)-2-(methylthio)pyrimidin-4-yl)azetidin-3-yl)-1-methyl-1H-benzo[d]imidazole]
2.5 | Cc1nc(N2CC(c3nc4ccccc4n3C)C2)cc(-n2cccn2)n1 [Example 3, 1-methyl-2-(1-(2-methyl-6-(1H-pyrazol-1-yl)pyrimidin-4-yl)azetidin-3-yl)-1H-benzo[d]imidazole]
1.8 | COc1nc(N2CC(c3nc4ccccc4n3C)C2)cc(-n2nc(C)nc2C2CC2)n1 [Example 63, 2-(1-(6-(5-cyclopropyl-3-methyl-1H-1,2,4-triazol-1-yl)-2-methoxypyrimidin-4-yl)azetidin-3-yl)-1-methyl-1H-benzo[d]imidazole]

Ki [nM] | Compound
8.6 | Cc1cc(C)n(-c2cc(N3CC(c4nc5ccccc5n4C)C3)nc(C)n2)n1 [Example 7, 2-(1-(6-(3,5-dimethyl-1H-pyrazol-1-yl)-2-methylpyrimidin-4-yl)azetidin-3-yl)-1-methyl-1H-benzo[d]imidazole]
0.49 | Cc1nc(C)n(-c2cc(N3CC(c4nc5ccccc5n4C)C3)nc(OCc3ccon3)n2)n1 [Example 74, 3-(((4-(3,5-dimethyl-1H-1,2,4-triazol-1-yl)-6-(3-(1-methyl-1H-benzo[d]imidazol-2-yl)azetidin-1-yl)pyrimidin-2-yl)oxy)methyl)isoxazole]
14 | Cc1nc(N2CC(c3nc4ccccc4n3CC#N)C2)cc(-n2nc(C)nc2C)n1 [Example 115, 2-(2-(1-(6-(3,5-dimethyl-1H-1,2,4-triazol-1-yl)-2-methylpyrimidin-4-yl)azetidin-3-yl)-1H-benzo[d]imidazol-1-yl)acetonitrile]
63 | Cc1nc(-c2ccccc2)cc(N2CC(c3nc4ccccc4n3C)C2)n1 [Example 88, 1-methyl-2-(1-(2-methyl-6-phenylpyrimidin-4-yl)azetidin-3-yl)-1H-benzo[d]imidazole]
1.2 | Cc1nc(N2CC(c3nc4ccccc4n3C)C2)cc(-n2nc(C)nc2COc2ccccc2)n1 [Example 46, 1-methyl-2-(1-(2-methyl-6-(3-methyl-5-(phenoxymethyl)-1H-1,2,4-triazol-1-yl)pyrimidin-4-yl)azetidin-3-yl)-1H-benzo[d]imidazole]
0.41 | CCCc1nc(C)nn1-c1cc(N2CC(c3nc4ccccc4n3C)C2)nc(C)n1 [Example 38, 1-methyl-2-(1-(2-methyl-6-(3-methyl-5-propyl-1H-1,2,4-triazol-1-yl)pyrimidin-4-yl)azetidin-3-yl)-1H-benzo[d]imidazole]
0.63 | Cc1nc(N2CC(c3nc4ccccc4n3C)C2)cc(-n2cc(C)c(C)n2)n1 [Example 8, 2-(1-(6-(3,4-dimethyl-1H-pyrazol-1-yl)-2-methylpyrimidin-4-yl)azetidin-3-yl)-1-methyl-1H-benzo[d]imidazole]
1.2 | Cc1cnn(-c2cc(N3CC(c4nc5ccccc5n4C)C3)nc(C(F)(F)F)n2)c1 [Example 5, 1-methyl-2-(1-(6-(4-methyl-1H-pyrazol-1-yl)-2-(trifluoromethyl)pyrimidin-4-yl)azetidin-3-yl)-1H-benzo[d]imidazole]
2.1 | Cc1nc(N2CC(c3nc4ccccc4n3C)C2)cc(-n2nc(C)nc2C)n1 [Example 1, 2-(1-(6-(3,5-dimethyl-1H-1,2,4-triazol-1-yl)-2-methylpyrimidin-4-yl)azetidin-3-yl)-1-methyl-1H-benzo[d]imidazole]
1 | Cc1nc(N2CC(c3nc4ccccc4n3C)C2)cc(-n2nc(C)nc2C[C@@H](C)O)n1 [Example 41, (R)-1-(3-methyl-1-(2-methyl-6-(3-(1-methyl-1H-benzo[d]imidazol-2-yl)azetidin-1-yl)pyrimidin-4-yl)-1H-1,2,4-triazol-5-yl)propan-2-ol]
3.3 | CCc1nc(CC)n(-c2cc(N3CC(c4nc5ccccc5n4C)C3)nc(C)n2)n1 [Example 22, 2-(1-(6-(3,5-diethyl-1H-1,2,4-triazol-1-yl)-2-methylpyrimidin-4-yl)azetidin-3-yl)-1-methyl-1H-benzo[d]imidazole]
0.26 | Cc1nc(N2CC(c3nc4ccccc4n3C)C2)cc(-n2nc(C)nc2CN2CCCC2=O)n1 [Example 48, 1-((3-methyl-1-(2-methyl-6-(3-(1-methyl-1H-benzo[d]imidazol-2-yl)azetidin-1-yl)pyrimidin-4-yl)-1H-1,2,4-triazol-5-yl)methyl)pyrrolidin-2-one]
0.82 | COc1nc(N2CC(c3nc4ccccc4n3C)C2)cc(-n2cc(C)cn2)n1 [Example 4, 2-(1-(2-methoxy-6-(4-methyl-1H-pyrazol-1-yl)pyrimidin-4-yl)azetidin-3-yl)-1-methyl-1H-benzo[d]imidazole]
> 75 | Cc1nc(N2CC(c3nc4cccc(C(F)(F)F)c4[nH]3)C2)cc(-n2nc(C)nc2C)n1 [Example 112, 2-(1-(6-(3,5-dimethyl-1H-1,2,4-triazol-1-yl)-2-methylpyrimidin-4-yl)azetidin-3-yl)-7-(trifluoromethyl)-1H-benzo[d]imidazole]
0.9 | Cc1ccc(-c2cc(N3CC(c4nc5ccccc5n4C)C3)nc(C(F)(F)F)n2)nc1 [Example 97, 1-methyl-2-(1-(6-(5-methylpyridin-2-yl)-2-(trifluoromethyl)pyrimidin-4-yl)azetidin-3-yl)-1H-benzo[d]imidazole]
0.4 | CCc1nc(C)nn1-c1cc(N2CC(c3nc4ccccc4n3C)C2)nc(OC)n1 [Example 64, 2-(1-(6-(5-ethyl-3-methyl-1H-1,2,4-triazol-1-yl)-2-methoxypyrimidin-4-yl)azetidin-3-yl)-1-methyl-1H-benzo[d]imidazole]
0.93 | Cc1nc(N2CC(c3nc4ccccc4n3C)C2)cc(-n2nc(C)c(C)c2C)n1 [Example 9, 1-methyl-2-(1-(2-methyl-6-(3,4,5-trimethyl-1H-pyrazol-1-yl)pyrimidin-4-yl)azetidin-3-yl)-1H-benzo[d]imidazole]
